# Measured values: ChEMBL document CHEMBL5291721, “A preclinical secondary pharmacology resource illuminates target-adverse drug reaction associations of marketed drugs” (Nat Commun, 2023)
# Legend:
# [1] = target: D(1A) dopamine receptor (Homo sapiens, UniProt P21728)
# [2] = target: Prothrombin (Homo sapiens, UniProt P00734); assay type: functional
# [3] = target: Histamine H3 receptor (Homo sapiens, UniProt Q9Y5N1)
# [4] = target: T1, 5-hydroxytryptamine receptor 1A (Homo sapiens, UniProt P08908)
# T1 sequence (P08908 whole entry): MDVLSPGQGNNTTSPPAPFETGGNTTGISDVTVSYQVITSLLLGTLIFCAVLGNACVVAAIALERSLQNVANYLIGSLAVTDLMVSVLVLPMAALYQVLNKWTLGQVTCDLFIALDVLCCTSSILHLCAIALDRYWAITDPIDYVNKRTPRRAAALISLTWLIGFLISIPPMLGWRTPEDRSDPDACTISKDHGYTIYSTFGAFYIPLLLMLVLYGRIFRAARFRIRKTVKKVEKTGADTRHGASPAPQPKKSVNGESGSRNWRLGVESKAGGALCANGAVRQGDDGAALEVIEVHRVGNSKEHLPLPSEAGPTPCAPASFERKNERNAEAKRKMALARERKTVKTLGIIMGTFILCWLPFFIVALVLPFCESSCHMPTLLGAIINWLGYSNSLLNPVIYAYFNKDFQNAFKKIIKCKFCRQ
# [5] = target: 5-hydroxytryptamine receptor 2B (Homo sapiens, UniProt P41595); assay type: functional, cell-based
# Chain of 5-hydroxytryptamine receptor 2B (P41595 whole entry): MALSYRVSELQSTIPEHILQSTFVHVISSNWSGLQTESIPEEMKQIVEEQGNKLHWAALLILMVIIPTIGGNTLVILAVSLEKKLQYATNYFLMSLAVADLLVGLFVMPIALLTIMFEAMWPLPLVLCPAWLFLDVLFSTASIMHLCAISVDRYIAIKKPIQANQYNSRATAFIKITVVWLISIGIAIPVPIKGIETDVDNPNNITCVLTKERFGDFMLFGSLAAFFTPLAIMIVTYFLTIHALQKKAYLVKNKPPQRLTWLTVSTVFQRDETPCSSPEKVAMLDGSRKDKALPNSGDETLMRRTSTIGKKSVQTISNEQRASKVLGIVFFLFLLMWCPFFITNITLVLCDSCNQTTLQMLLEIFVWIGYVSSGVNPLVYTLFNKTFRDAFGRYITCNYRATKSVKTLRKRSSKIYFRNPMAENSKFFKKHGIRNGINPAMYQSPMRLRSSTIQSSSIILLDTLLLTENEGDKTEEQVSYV
# [6] = target: T2, Amine oxidase [flavin-containing] A (Homo sapiens, UniProt P21397); assay type: functional
# T2 sequence (P21397 whole entry): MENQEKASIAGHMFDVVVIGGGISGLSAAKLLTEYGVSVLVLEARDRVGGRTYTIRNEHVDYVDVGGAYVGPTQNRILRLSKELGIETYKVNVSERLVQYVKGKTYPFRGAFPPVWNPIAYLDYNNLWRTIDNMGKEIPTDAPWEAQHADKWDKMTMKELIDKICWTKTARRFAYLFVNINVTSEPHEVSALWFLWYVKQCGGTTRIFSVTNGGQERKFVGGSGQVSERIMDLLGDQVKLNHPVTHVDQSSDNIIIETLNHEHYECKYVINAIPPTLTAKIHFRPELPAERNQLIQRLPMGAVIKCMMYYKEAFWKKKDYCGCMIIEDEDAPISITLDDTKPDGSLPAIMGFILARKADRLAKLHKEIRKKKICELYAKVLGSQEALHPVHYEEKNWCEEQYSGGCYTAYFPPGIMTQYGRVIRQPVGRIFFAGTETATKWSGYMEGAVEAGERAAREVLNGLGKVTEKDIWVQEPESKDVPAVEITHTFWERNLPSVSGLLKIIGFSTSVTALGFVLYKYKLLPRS
# [7] = target: T3, Progesterone receptor (Homo sapiens, UniProt P06401)
# T3 sequence (P06401 whole entry): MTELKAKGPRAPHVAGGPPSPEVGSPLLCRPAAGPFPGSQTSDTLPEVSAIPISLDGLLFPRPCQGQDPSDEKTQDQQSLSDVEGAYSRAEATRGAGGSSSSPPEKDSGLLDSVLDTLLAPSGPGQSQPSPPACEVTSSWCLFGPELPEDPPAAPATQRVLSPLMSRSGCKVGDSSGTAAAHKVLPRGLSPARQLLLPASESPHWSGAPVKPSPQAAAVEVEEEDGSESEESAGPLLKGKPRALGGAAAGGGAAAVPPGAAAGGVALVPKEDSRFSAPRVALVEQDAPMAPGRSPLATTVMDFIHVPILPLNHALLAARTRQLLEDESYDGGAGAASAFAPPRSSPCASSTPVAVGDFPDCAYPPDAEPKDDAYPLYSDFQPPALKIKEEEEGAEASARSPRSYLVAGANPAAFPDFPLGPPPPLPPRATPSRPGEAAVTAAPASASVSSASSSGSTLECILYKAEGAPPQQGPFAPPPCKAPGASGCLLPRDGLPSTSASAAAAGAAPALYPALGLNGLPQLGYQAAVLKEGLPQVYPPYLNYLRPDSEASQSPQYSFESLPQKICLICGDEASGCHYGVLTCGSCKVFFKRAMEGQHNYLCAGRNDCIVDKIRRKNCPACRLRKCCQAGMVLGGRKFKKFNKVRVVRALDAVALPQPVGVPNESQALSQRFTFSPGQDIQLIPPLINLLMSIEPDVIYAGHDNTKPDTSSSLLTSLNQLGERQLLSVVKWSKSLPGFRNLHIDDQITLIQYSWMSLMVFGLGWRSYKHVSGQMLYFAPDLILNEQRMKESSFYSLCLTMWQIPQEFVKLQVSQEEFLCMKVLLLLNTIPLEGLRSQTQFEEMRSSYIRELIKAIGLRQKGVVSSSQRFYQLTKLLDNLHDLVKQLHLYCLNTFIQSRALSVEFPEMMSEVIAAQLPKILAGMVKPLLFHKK
# [8] = target: T4, Prostaglandin G/H synthase 1 (Homo sapiens, UniProt P23219); assay type: functional
# T4 sequence (P23219 whole entry): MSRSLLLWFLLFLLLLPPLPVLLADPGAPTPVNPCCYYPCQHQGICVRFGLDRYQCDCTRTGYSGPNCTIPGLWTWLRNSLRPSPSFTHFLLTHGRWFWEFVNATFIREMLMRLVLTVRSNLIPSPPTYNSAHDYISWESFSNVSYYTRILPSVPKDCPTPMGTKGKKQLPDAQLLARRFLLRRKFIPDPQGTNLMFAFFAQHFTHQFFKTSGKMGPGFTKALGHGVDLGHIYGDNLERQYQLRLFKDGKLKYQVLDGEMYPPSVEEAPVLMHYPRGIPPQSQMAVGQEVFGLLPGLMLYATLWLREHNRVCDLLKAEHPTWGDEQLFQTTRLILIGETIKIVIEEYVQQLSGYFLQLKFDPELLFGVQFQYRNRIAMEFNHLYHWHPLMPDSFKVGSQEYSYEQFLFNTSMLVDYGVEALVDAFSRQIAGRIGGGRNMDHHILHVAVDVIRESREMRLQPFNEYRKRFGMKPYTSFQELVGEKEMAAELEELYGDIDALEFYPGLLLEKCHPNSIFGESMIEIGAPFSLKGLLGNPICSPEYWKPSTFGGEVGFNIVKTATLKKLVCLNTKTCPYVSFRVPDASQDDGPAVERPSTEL
# [9] = target: T4, Prostaglandin G/H synthase 1; assay type: functional; remark: listed apart in the source
# [10] = target: Sodium-dependent dopamine transporter (Homo sapiens, UniProt Q01959)
# Chain of Sodium-dependent dopamine transporter (Q01959 whole entry): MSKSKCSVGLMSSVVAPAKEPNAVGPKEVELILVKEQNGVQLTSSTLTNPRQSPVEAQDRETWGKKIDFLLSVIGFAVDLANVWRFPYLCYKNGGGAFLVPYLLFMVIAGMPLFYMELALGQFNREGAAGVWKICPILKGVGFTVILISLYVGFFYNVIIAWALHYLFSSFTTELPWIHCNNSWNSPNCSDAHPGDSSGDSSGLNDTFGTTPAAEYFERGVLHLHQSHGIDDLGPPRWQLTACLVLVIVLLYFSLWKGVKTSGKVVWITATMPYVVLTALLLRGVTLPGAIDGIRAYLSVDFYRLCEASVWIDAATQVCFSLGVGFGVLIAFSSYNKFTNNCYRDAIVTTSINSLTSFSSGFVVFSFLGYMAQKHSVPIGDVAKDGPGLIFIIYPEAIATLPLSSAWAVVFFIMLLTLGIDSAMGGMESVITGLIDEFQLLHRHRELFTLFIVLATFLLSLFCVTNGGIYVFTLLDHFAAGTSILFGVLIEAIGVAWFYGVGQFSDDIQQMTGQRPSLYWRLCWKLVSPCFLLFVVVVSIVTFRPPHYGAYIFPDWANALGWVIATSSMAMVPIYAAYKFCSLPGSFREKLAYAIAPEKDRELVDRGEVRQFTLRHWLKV
# [11] = target: T5, Alpha-1A adrenergic receptor (Homo sapiens, UniProt P35348); assay type: functional, cell-based
# T5 sequence (P35348 whole entry): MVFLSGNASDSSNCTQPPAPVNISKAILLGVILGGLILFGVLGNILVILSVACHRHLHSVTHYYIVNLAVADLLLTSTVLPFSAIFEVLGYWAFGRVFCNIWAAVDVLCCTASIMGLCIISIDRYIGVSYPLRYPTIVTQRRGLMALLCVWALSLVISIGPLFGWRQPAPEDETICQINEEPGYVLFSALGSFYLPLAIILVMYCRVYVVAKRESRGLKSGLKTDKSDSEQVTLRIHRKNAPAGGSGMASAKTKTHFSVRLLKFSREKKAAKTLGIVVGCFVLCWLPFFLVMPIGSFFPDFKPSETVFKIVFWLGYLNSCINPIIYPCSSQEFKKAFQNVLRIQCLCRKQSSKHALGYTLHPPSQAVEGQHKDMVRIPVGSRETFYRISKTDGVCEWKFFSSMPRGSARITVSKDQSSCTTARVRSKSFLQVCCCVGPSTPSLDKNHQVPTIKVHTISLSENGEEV
# Note: assay procedure not described here.
# Chain of D(1A) dopamine receptor (P21728 whole entry): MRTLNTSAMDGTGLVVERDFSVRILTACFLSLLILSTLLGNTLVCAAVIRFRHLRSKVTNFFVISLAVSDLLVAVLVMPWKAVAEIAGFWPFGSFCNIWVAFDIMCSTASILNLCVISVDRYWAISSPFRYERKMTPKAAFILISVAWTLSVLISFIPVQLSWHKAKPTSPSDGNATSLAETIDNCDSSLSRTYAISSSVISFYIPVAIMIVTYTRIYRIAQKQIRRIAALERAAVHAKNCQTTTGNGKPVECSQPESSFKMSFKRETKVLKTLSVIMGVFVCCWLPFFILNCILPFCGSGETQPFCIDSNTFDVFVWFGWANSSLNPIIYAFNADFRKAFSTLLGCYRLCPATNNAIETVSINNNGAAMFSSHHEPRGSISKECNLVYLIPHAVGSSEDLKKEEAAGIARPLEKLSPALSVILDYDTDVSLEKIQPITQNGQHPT
# Chain of Histamine H3 receptor (Q9Y5N1 whole entry): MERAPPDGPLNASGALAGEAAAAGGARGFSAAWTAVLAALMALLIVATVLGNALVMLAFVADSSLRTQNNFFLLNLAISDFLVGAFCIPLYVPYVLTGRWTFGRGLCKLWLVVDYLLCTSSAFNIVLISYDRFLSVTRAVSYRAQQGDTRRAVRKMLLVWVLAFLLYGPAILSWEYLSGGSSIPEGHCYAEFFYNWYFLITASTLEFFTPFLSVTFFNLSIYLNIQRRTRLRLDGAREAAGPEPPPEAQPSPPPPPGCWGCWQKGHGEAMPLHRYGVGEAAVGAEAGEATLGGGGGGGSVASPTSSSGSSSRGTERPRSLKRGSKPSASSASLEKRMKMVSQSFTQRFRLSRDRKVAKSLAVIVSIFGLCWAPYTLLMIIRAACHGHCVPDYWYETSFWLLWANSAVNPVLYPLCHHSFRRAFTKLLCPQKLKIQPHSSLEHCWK
Compound,AC50 [1] [µM],AC50 [2] [µM],AC50 [3] [µM],AC50 [4] [µM],AC50 [5] [µM],AC50 [6] [µM],AC50 [7] [µM],AC50 [8] [µM],AC50 [9] [µM],AC50 [10] [µM],AC50 [11] [µM]
CCCCCCCC(=O)N[C@H](CN1CCCC1)[C@H](O)c1ccc2c(c1)OCCO2,> 30,> 30,> 30,14.3,> 30,> 30,> 30,10.1,26.5,> 30,–
C[C@]1(COc2ccc(N3CCC(Oc4ccc(OC(F)(F)F)cc4)CC3)cc2)Cn2cc([N+](=O)[O-])nc2O1,> 30,> 30,> 30,> 30,> 30,> 30,> 30,27.9,> 30,> 30,> 30
CC(C1=C(CCN(C)C)Cc2ccccc21)c1ccccn1 (centres undefined),6.52,> 30,13.2,8.78,> 30,> 30,> 30,> 30,19.4,> 30,> 30
CC(=O)OC(C)OC(=O)C(C)c1ccc(-c2ccccc2)c(F)c1 (centres undefined),> 30,> 30,> 30,> 30,> 30,> 30,25.4,0.0309,0.0212,> 30,> 30
CC(=O)OCC[N+](C)(C)C [ACETYLCHOLINE],> 30,> 30,> 30,> 30,> 30,> 30,> 30,> 30,> 30,> 30,> 30
C[C@H](N)C(=O)O [ALANINE],> 30,> 30,> 30,> 30,> 30,> 30,> 30,> 30,> 30,> 30,> 30
O=C1c2c(O)cccc2Cc2cccc(O)c21 [ANTHRALIN],> 30,> 30,28.9,> 30,> 30,> 30,> 30,0.875,14,> 3,> 30
CNC(=O)C[C@@H](N)C(=O)N[C@@H](C(=O)N[C@@H]1C(=O)N2[C@@H]1SC(C)(C)[C@@H]2C(=O)O)c1ccc(O)cc1 [ASPOXICILLIN],> 30,> 30,> 30,> 30,> 30,> 30,> 30,> 30,> 30,> 30,> 30
O=C(Nc1nc(-c2cc(Cl)cs2)c(N2CCN(C3CCCCC3)CC2)s1)c1cnc(N2CCC(C(=O)O)CC2)c(Cl)c1 [AVATROMBOPAG],> 30,> 30,> 30,> 30,> 30,> 30,> 30,> 30,19.8,> 30,–
COC(=O)C1=C(C)NC(C)=C(C(=O)O[C@H]2CCN(Cc3ccccc3)C2)[C@H]1c1cccc([N+](=O)[O-])c1 [BARNIDIPINE],8.89,> 30,> 30,6.56,> 30,> 30,5.55,> 30,> 30,1.9,> 30
C[C@@H](O)[C@H]1C(=O)N2C(C(=O)[O-])=C(SC3Cn4cnc[n+]4C3)[C@H](C)[C@H]12 (some centres undefined) [BIAPENEM],> 30,> 30,> 30,> 30,> 30,> 30,> 30,> 30,> 30,> 30,> 30
CO[C@@]1(NC(=O)CSCC#N)C(=O)N2C(C(=O)O)=C(CSc3nnnn3C)CS[C@@H]21 [CEFMETAZOLE],> 30,> 30,> 30,> 30,> 30,> 30,> 30,> 30,> 30,> 30,–
Oc1c(I)cc(Cl)c2cccnc12 [CLIOQUINOL],> 30,> 30,> 30,> 30,> 30,> 30,> 30,> 30,> 30,> 30,–
CCC(=O)O[C@@H]1CC(=O)O[C@H](C)C/C=C/C=C/[C@H](OC(C)=O)[C@H](C)C[C@H](CC=O)[C@H](O[C@@H]2O[C@H](C)[C@@H](O[C@H]3C[C@@](C)(OC(C)=O)[C@@H](OC(=O)CC)[C@H](C)O3)[C@H](N(C)C)[C@H]2O)[C@H]1OC [MIOCAMYCIN],> 30,> 30,> 30,> 30,> 30,> 30,> 30,> 30,> 30,> 30,–
N[C@@H](Cc1c[nH]c2ccc(O)cc12)C(=O)O [OXITRIPTAN],> 30,> 30,> 30,–,10.1,> 30,> 30,> 3,> 30,> 30,> 30
CCOC(=O)[C@H](CCc1ccccc1)N[C@H]1CS[C@H](c2cccs2)CN(CC(=O)O)C1=O [TEMOCAPRIL],> 30,> 30,> 30,> 30,> 30,> 30,–,> 30,> 30,> 30,> 30
